# Measured values from paper PMC12210654, “Palazestrant, a novel oral Complete Estrogen Receptor Antagonist (CERAN) and Selective Estrogen Receptor Degrader (SERD), in patients with ER+/HER2− advanced or metastatic breast cancer: phase 1/2 study results” (Breast Cancer Research : BCR, 2025).
# Experiment: Safety: adverse events (NCI CTCAE v5.0), electrocardiograms
# Assay type: in vivo, human
# Conditions: phase 1a; for TEAE Neutropenia, Toxicity Grade All: includes neutropenia and neutrophil count decreased
# Protocol: Safety assessments included the monitoring of AEs, clinical laboratory parameters, electrocardiograms, and vital signs. AE severity was graded according to the National Cancer Institute Common Terminology Criteria for Adverse Events (version 5.0).
# All DLT analyses (phase 1a) were performed in patients enrolled in the study during cycle 1 and who either received 75% of the planned palazestrant doses or experienced a DLT during cycle 1. All PK analyses were performed in patients who received at least 1 dose of palazestrant and had adequate postbaseline PK samples for characterization of PK parameters. All safety analyses were performed and PFS assessed in patients who received at least 1 dose of palazestrant. Clinical response (CR or PR) was assessed in patients who received at least 1 cycle of palazestrant, had measurable disease at baseline, and had at least 1 postbaseline tumor assessment. CBR was assessed in patients who received at least 1 cycle of palazestrant, had at least 1 postbaseline tumor assessment, and started their first dose at least 24 weeks before data cutoff. Patients who discontinued study treatment without radiographic progression within 24 weeks from the first dose were not included in the CBR analysis. PK parameters were estimated using conventional noncompartmental methods. For CBR, estimates were accompanied by 2-sided 95% confidence intervals (95% CIs). For PFS, Kaplan–Meier analyses were used to determine medians, event-free rates, and 95% CIs. For all other outcomes, categorical data were analyzed using frequencies and percentages, and continuous data were analyzed using means (standard deviation) or medians (range), as appropriate.
structure (smiles),measurement,setting,value
"CCCN1CC(Oc2ccc([C@@H]3c4[nH]c5ccccc5c4C[C@@H](C)N3CC(C)(C)F)cc2)C1 [palazestrant, Palazestrant]","TEAE Vomiting, Toxicity Grade G4",150 mg (N=5),0
same,"TEAE Neutropenia, Toxicity Grade All",150 mg (N=5),2 (40.0)
same,"TEAE Constipation, Toxicity Grade All",210 mg (N=7),4 (57.1)
same,"TEAE Constipation, Toxicity Grade G3",210 mg (N=7),0
same,"TEAE Constipation, Toxicity Grade G4",210 mg (N=7),0
same,"TEAE Decreased appetite, Toxicity Grade All",210 mg (N=7),3 (42.9)
same,"TEAE Decreased appetite, Toxicity Grade G3",210 mg (N=7),0
same,"TEAE Decreased appetite, Toxicity Grade G4",210 mg (N=7),0
same,"TEAE Diarrhea, Toxicity Grade All",210 mg (N=7),0
same,"TEAE Diarrhea, Toxicity Grade G3",210 mg (N=7),0
same,"TEAE Diarrhea, Toxicity Grade G4",210 mg (N=7),0
same,"TEAE Fatigue, Toxicity Grade All",210 mg (N=7),2 (28.6)
same,"TEAE Fatigue, Toxicity Grade G3",210 mg (N=7),0
same,"TEAE Fatigue, Toxicity Grade G4",210 mg (N=7),0
same,"TEAE Headache, Toxicity Grade All",210 mg (N=7),0
same,"TEAE Headache, Toxicity Grade G3",210 mg (N=7),0
same,"TEAE Headache, Toxicity Grade G4",210 mg (N=7),0
same,"TEAE Maculopapular rash, Toxicity Grade All",210 mg (N=7),2 (28.6)
same,"TEAE Maculopapular rash, Toxicity Grade G3",210 mg (N=7),0
same,"TEAE Maculopapular rash, Toxicity Grade G4",210 mg (N=7),0
same,"TEAE Nausea, Toxicity Grade All",210 mg (N=7),4 (57.1)
same,"TEAE Nausea, Toxicity Grade G3",210 mg (N=7),0
same,"TEAE Nausea, Toxicity Grade G4",210 mg (N=7),0
same,"TEAE Neutropenia, Toxicity Grade G3",210 mg (N=7),0
same,"TEAE Neutropenia, Toxicity Grade G4",210 mg (N=7),0
same,"TEAE Vomiting, Toxicity Grade All",210 mg (N=7),1 (14.3)
same,"TEAE Vomiting, Toxicity Grade G3",210 mg (N=7),0
same,"TEAE Vomiting, Toxicity Grade G4",210 mg (N=7),0
same,"TEAE Neutropenia, Toxicity Grade All",210 mg (N=7),1 (14.3)
same,"TEAE Constipation, Toxicity Grade All",300 mg (N=7),3 (42.9)
same,"TEAE Constipation, Toxicity Grade G3",300 mg (N=7),0
same,"TEAE Constipation, Toxicity Grade G4",300 mg (N=7),0
same,"TEAE Decreased appetite, Toxicity Grade All",300 mg (N=7),3 (42.9)
same,"TEAE Decreased appetite, Toxicity Grade G3",300 mg (N=7),0
same,"TEAE Decreased appetite, Toxicity Grade G4",300 mg (N=7),0
same,"TEAE Diarrhea, Toxicity Grade All",300 mg (N=7),1 (14.3)
same,"TEAE Diarrhea, Toxicity Grade G3",300 mg (N=7),0
same,"TEAE Diarrhea, Toxicity Grade G4",300 mg (N=7),0
same,"TEAE Fatigue, Toxicity Grade All",300 mg (N=7),4 (57.1)
same,"TEAE Fatigue, Toxicity Grade G3",300 mg (N=7),0
same,"TEAE Fatigue, Toxicity Grade G4",300 mg (N=7),0
same,"TEAE Headache, Toxicity Grade All",300 mg (N=7),4 (57.1)
same,"TEAE Headache, Toxicity Grade G3",300 mg (N=7),0
same,"TEAE Headache, Toxicity Grade G4",300 mg (N=7),0
same,"TEAE Maculopapular rash, Toxicity Grade All",300 mg (N=7),2 (28.6)
same,"TEAE Maculopapular rash, Toxicity Grade G3",300 mg (N=7),0
same,"TEAE Maculopapular rash, Toxicity Grade G4",300 mg (N=7),0
same,"TEAE Nausea, Toxicity Grade All",300 mg (N=7),6 (85.7)
same,"TEAE Nausea, Toxicity Grade G3",300 mg (N=7),1 (14.3)
same,"TEAE Nausea, Toxicity Grade G4",300 mg (N=7),0
same,"TEAE Neutropenia, Toxicity Grade G3",300 mg (N=7),0
same,"TEAE Neutropenia, Toxicity Grade G4",300 mg (N=7),1 (14.3)
same,"TEAE Vomiting, Toxicity Grade All",300 mg (N=7),5 (71.4)
same,"TEAE Vomiting, Toxicity Grade G3",300 mg (N=7),0
same,"TEAE Vomiting, Toxicity Grade G4",300 mg (N=7),0
same,"TEAE Neutropenia, Toxicity Grade All",300 mg (N=7),3 (42.9)
same,"TEAE Constipation, Toxicity Grade All",Total (N=42),10 (23.8)
same,"TEAE Constipation, Toxicity Grade G3",Total (N=42),0
same,"TEAE Constipation, Toxicity Grade G4",Total (N=42),0
same,"TEAE Decreased appetite, Toxicity Grade All",Total (N=42),10 (23.8)
same,"TEAE Decreased appetite, Toxicity Grade G3",Total (N=42),0
same,"TEAE Decreased appetite, Toxicity Grade G4",Total (N=42),0
same,"TEAE Diarrhea, Toxicity Grade All",Total (N=42),7 (16.7)
same,"TEAE Diarrhea, Toxicity Grade G3",Total (N=42),0
same,"TEAE Diarrhea, Toxicity Grade G4",Total (N=42),0
same,"TEAE Fatigue, Toxicity Grade All",Total (N=42),14 (33.3)
same,"TEAE Fatigue, Toxicity Grade G3",Total (N=42),1 (2.4)
same,"TEAE Fatigue, Toxicity Grade G4",Total (N=42),0
same,"TEAE Headache, Toxicity Grade All",Total (N=42),9 (21.4)
same,"TEAE Headache, Toxicity Grade G3",Total (N=42),0
same,"TEAE Headache, Toxicity Grade G4",Total (N=42),0
same,"TEAE Maculopapular rash, Toxicity Grade All",Total (N=42),7 (16.7)
same,"TEAE Maculopapular rash, Toxicity Grade G3",Total (N=42),0
same,"TEAE Maculopapular rash, Toxicity Grade G4",Total (N=42),0
same,"TEAE Nausea, Toxicity Grade All",Total (N=42),25 (59.5)
same,"TEAE Nausea, Toxicity Grade G3",Total (N=42),2 (4.8)
same,"TEAE Nausea, Toxicity Grade G4",Total (N=42),0
same,"TEAE Neutropenia, Toxicity Grade G3",Total (N=42),0
same,"TEAE Neutropenia, Toxicity Grade G4",Total (N=42),4 (9.5)
same,"TEAE Vomiting, Toxicity Grade All",Total (N=42),13 (31.0)
same,"TEAE Vomiting, Toxicity Grade G3",Total (N=42),1 (2.4)
same,"TEAE Vomiting, Toxicity Grade G4",Total (N=42),0
same,"TEAE Neutropenia, Toxicity Grade All",Total (N=42),10 (23.8)
